This note sets out measurements from patent publication US4039660A, “Antibiotic Y-G19Z D3 and the production thereof” (Yamanouchi Pharmaceutical Co., Ltd., priority 1974, dated 1977).

Holding throughout (assay): Inhibition zone, disc on seeded Heart infusion agar
Format in all cases: cell-based

Experiment [1] concerns Staphylococcus aureus 209 P. Conditions: disc dipped in 125 mcg/ml solution, read-out: diameter of the inhibition zone. From the text: (§1) Antimicrobial activities of Y-G19ZD3 in comparison with those of Cephalosporin C against various microorganisms are shown in Table 3. The figure indicates the diameter (mm) of the inhibition zone obtained with a disc dipped in 125 mcg/ml solution on Heart infusion agar seeded with each organism.

Experiment [2] concerns Sarcina lutea ATCC 9941. Conditions: Micrococcus luteus, ATCC9941, read-out: diameter of the inhibition zone.
Excerpt: as §1

For experiment [3], the system named is Proteus morganii. The conditions noted are these: Morganella morganii, disc dipped in 125 mcg/ml solution, read-out: diameter of the inhibition zone.
Excerpt: as §1

In experiment [4] the test system is Proteus vulgaris. The conditions noted are these: disc dipped in 125 mcg/ml solution, read-out: diameter of the inhibition zone.
Excerpt: as §1

The test system of experiment [5] is Basillus subtilis ATCC 6633. The conditions noted are these: read-out: diameter of the inhibition zone.
Excerpt: as §1

The subject of experiment [6] is Klebsiella pneumoniae. The conditions noted are these: disc dipped in 125 mcg/ml solution, read-out: diameter of the inhibition zone.
Excerpt: as §1

Experiment [7] concerns Proteus mirabilis IMF-OM9. The conditions noted are these: IMFOM9, read-out: diameter of the inhibition zone.
Excerpt: as §1

As for `CC(=O)OCC1=C(C(=O)O)N2C(=O)[C@@H](NC(=O)CCC[C@@H](N)C(=O)O)[C@H]2SC1` [Cephalosporin C], the zone of inhibition at 125 µg/mL in experiment [1] stood at 0 mm; in experiment [2], 0 mm; in experiment [3], 0 mm; in experiment [4] it was 0 mm; in experiment [5], 13.5 mm; in experiment [6] it was 0 mm. Also, the zone of inhibition at 125 µg/mL in experiment [7] was found to be 17.6 mm.

The zone of inhibition is the extent of the growth-free halo in a diffusion test.
